Measurements reported in publication PMC4649711, “In1-ghrelin splicing variant is overexpressed in pituitary adenomas and increases their aggressive features” (Scientific Reports, 2015).
Values joined by “and” are separate entries in the source; they are usually repeats but may differ in a detail not shown here. Equal entries are not always repeated. “Also recorded” adds a separate entry of the source.

Assays:
[1] = system: PRL-omas (tumoral pituitary cells); experiment: free cytosolic calcium kinetics ([Ca^2+]i), PRL-oma cells; format: cell-based, human; conditions: fura-2AM
Experimental: Pituitary adenoma specimens were dispersed into single cells by enzymatic and mechanical disruption and cultured onto tissue culture plates in serum containing medium, as previously described. Briefly, pituitary samples were resected by endoscopic transsphenoidal surgery and transferred to sterile cold (4°C) culture medium (S-MEM, Gibco, Madrid, Spain) supplemented with 0.1% BSA, 0.01% L-glutamine, 1% antibiotic-antimycotic solution, and 2.5% HEPES. Samples were minced under sterile conditions into 1–2 mm^3 pieces. […]
As previously reported, changes in [Ca^2+]i in single cells were measured using fura-2AM (50,000 cells/coverslip; Molecular Probes, Eugene, OR)[23][30]. […] Cells were examined for changes in [Ca^2+]i after the appropriate treatment (native ghrelin, In1-19 or In1-40) using a 40× objective with Immersion Oil Type NF (Nikon, Tokyo, Japan) while exposed to alternating 340–380 nm light beams, and the intensity of light emission at 505 nm was measured every 5 seconds using MetaFluor Software (Imaging Corp., West Chester, PA, USA). […] Changes in [Ca^2+]i in CHO-K1 cell line expressing recombinant GHSR1a or GHSR1b receptor were measured using Calcium 4 Explorer Kit (Molecular Devices, Sunnyvale, CA, USA). […] Fluorescent signals were then monitored using the FLIPR Tetra (Molecular Devices, Sunnyvale, CA, USA) during which cells were stimulated with compounds. […]

ACTH-omas = system: ACTH-omas; parameters: method as in PMID 17280594; conditions: previous data; cited from earlier work
[2] = system: GHSR-lacking cells (e.g. prostate cell lines); conditions: cited from earlier work
pituitary adenoma cells = experiment: cell viability in all pituitary adenoma subtypes, peptide treatment; format: cell-based, human; conditions: 100 nM, 24-, 48- and/or 72-h, alamar-blue
Experimental: (§1) Pituitary adenoma specimens were dispersed into single cells by enzymatic and mechanical disruption and cultured onto tissue culture plates in serum containing medium, as previously described. Briefly, pituitary samples were resected by endoscopic transsphenoidal surgery and transferred to sterile cold (4°C) culture medium (S-MEM, Gibco, Madrid, Spain) supplemented with 0.1% BSA, 0.01% L-glutamine, 1% antibiotic-antimycotic solution, and 2.5% HEPES. Samples were minced under sterile conditions into 1–2 mm^3 pieces. Some pieces were stored at −80°C for posterior RNA isolation and, when possible, the remaining tissue samples were washed and incubated in 30 mL S-MEM medium supplemented 0.3% trypsin (Beckson, Dickinson and Company, Sparks, MD, USA) in a spinner flask (Bellco Glass, Vineland, NJ, USA) for 2 h of gentle shaking at 37°C and then, incubation was continued for another 5 min in presence of 1 mg of DNAse I (Roche, Mannheim, Germany). Dispersed cells were decanted by centrifugation and then, by repeated aspiration into a smoothtipped glass Pasteur pipette. […]
(§2) As previously reported, cell viability was estimated using alamar-blue reagent (10,000 cells/well-plate; Biosource International, Camarillo, CA, USA)[30][50][52]. […] Reduction of alamar-blue reagent was quantified exciting at 560 nm and reading at 590 nm using the FlexStation III system (Molecular Devices, Sunnyvale, CA, USA). […]

[3] = system: GH-omas (tumoral pituitary cells); experiment: free cytosolic calcium kinetics ([Ca^2+]i), GH-oma cells; format: cell-based, human
Experimental: as §1
(§3) As previously reported, changes in [Ca^2+]i in single cells were measured using fura-2AM (50,000 cells/coverslip; Molecular Probes, Eugene, OR)[23][30]. […] Cells were examined for changes in [Ca^2+]i after the appropriate treatment (native ghrelin, In1-19 or In1-40) using a 40× objective with Immersion Oil Type NF (Nikon, Tokyo, Japan) while exposed to alternating 340–380 nm light beams, and the intensity of light emission at 505 nm was measured every 5 seconds using MetaFluor Software (Imaging Corp., West Chester, PA, USA). […] Changes in [Ca^2+]i in CHO-K1 cell line expressing recombinant GHSR1a or GHSR1b receptor were measured using Calcium 4 Explorer Kit (Molecular Devices, Sunnyvale, CA, USA). […] Fluorescent signals were then monitored using the FLIPR Tetra (Molecular Devices, Sunnyvale, CA, USA) during which cells were stimulated with compounds. Dose-response curves were analyzed using GraphPad Prism v5.04 (La Jolla, CA, USA).

GH-omas = experiment: cell viability of GH-oma primary cultures, peptide treatment; format: cell-based, human; conditions: 100 nM, alamar-blue
Experimental: Pituitary adenoma specimens were dispersed into single cells by enzymatic and mechanical disruption and cultured onto tissue culture plates in serum containing medium, as previously described. Briefly, pituitary samples were resected by endoscopic transsphenoidal surgery and transferred to sterile cold (4°C) culture medium (S-MEM, Gibco, Madrid, Spain) supplemented with 0.1% BSA, 0.01% L-glutamine, 1% antibiotic-antimycotic solution, and 2.5% HEPES. Samples were minced under sterile conditions into 1–2 mm^3 pieces. Some pieces were stored at −80°C for posterior RNA isolation and, when possible, the remaining tissue samples were washed and incubated in 30 mL S-MEM medium supplemented 0.3% trypsin (Beckson, Dickinson and Company, Sparks, MD, USA) in a spinner flask (Bellco Glass, Vineland, NJ, USA) for 2 h of gentle shaking at 37°C and then, incubation was continued for another 5 min in presence of 1 mg of DNAse I (Roche, Mannheim, Germany). Dispersed cells were decanted by centrifugation and then, by repeated aspiration into a smoothtipped glass Pasteur pipette. Cells suspensions were washed once in 4.5 g/L glucose containing DMEM medium (Gibco, Madrid, Spain) supplemented with 0.1% BSA, 0.01% L-glutamine, 1% antibiotic-antimycotic solution, and 2.5% HEPES. Cell number and viability was estimated by the Trypan blue exclusion test in Neubauer chamber, where viability was always 90–100%.
As previously reported, cell viability was estimated using alamar-blue reagent (10,000 cells/well-plate; Biosource International, Camarillo, CA, USA)[30][50][52]. Briefly, cells were serum-starved for 12–16 h before the measurements and treated with serum-free medium containing 10% alamar-blue for 3 h. Reduction of alamar-blue reagent was quantified exciting at 560 nm and reading at 590 nm using the FlexStation III system (Molecular Devices, Sunnyvale, CA, USA). Subsequently, media was replaced by serum-containing alamar-blue free medium and incubated for additional 24–72 h, measuring the alamar-blue reduction every 24 h. […]

[4] = system: ACTH-omas (tumoral pituitary cells); experiment: free cytosolic calcium kinetics ([Ca^2+]i), ACTH-oma cells; format: cell-based, human
Experimental: as §1, §3

NFPAs = experiment: cell viability of NFPA primary cultures, peptide treatment; format: cell-based, human; conditions: 100 nM, alamar-blue, n = 3–15
Experimental: as §1, §2

PRL-omas = experiment: cell viability of PRL-oma primary cultures, peptide treatment; format: cell-based, human; conditions: 100 nM, time not specified in text (24-, 48- and/or 72-h), alamar-blue, n = 2–3
Experimental: as §1, §2

[5] = system: other endocrine cell types (e.g. pancreatic cells); parameters: method as in PMID 17068144; conditions: cited from earlier work
[6] = system: rat pituitary somatotrope cell lines; parameters: method as in PMID 15296479; conditions: cited from earlier work
[7] = proportion of responsive cells, fura-2AM single-cell imaging

In the case of CCCCCCCC(=O)OC[C@H](NC(=O)[C@H](CO)NC(=O)CN)C(=O)N[C@@H](Cc1ccccc1)C(=O)N[C@@H](CC(C)C)C(=O)N[C@@H](CO)C(=O)N1CCC[C@H]1C(=O)N[C@@H](CCC(=O)O)C(=O)N[C@@H](Cc1c[nH]cn1)C(=O)N[C@@H](CCC(N)=O)C(=O)N[C@@H](CCCNC(=N)N)C(=O)N[C@H](C(=O)N[C@@H](CCC(N)=O)C(=O)N[C@@H](CCC(N)=O)C(=O)N[C@@H](CCCNC(=N)N)C(=O)N[C@@H](CCCCN)C(=O)N[C@@H](CCC(=O)O)C(=O)N[C@@H](CO)C(=O)N[C@@H](CCCCN)C(=O)N[C@@H](CCCCN)C(=O)N1CCC[C@H]1C(=O)N1CCC[C@H]1C(=O)N[C@@H](C)C(=O)N[C@@H](CCCCN)C(=O)N[C@@H](CC(C)C)C(=O)N[C@@H](CCC(N)=O)C(=O)N1CCC[C@H]1C(=O)N[C@@H](CCCNC(=N)N)C(=O)O)C(C)C [AG], the “[Ca^2+]i response (in words)” value [1] is given as “only a low proportion of these pituitary adenoma cells altered their [Ca^2+]i”, the “# samples” value ([1]; responsive/tested samples, 217 / 160 / 88 cells analyzed for AG / In1-19 / In1-40, peptides 100 nM (abstract)) is given as 2/6 and the ACTH release (ACTH-omas) is given as “able to elicit an effect on ACTH release”. For the same compound, the “responses in GHSR-lacking cells” value [2] was “have been found in GHSR-lacking cells”, the cell viability (pituitary adenoma cells) was “increased cell viability in vitro in all pituitary adenoma subtypes” and the “[Ca^2+]i response (in words)” value ([3]; fura-2AM) was “doubling the [Ca^2+]i levels; also recorded: increased [Ca^2+]i”. For the same compound, the “% cell resp.” value [3, 7] was 74%, the “# samples” value ([3]; responsive/tested samples, fura-2AM single-cell imaging, 1500 / 983 / 520 cells analyzed for AG / In1-19 / In1-40, peptides 100 nM (abstract)) was 27/27 and the cell viability (GH-omas; 48 h, n = 5–17) was “significantly increased”. For the same compound, the cell viability (GH-omas; 72 h, n = 5–17) was “significantly increased”, the cell viability (GH-omas; time not given) was “modestly increased GH-oma cell viability” and the “[Ca^2+]i response (in words)” value ([4]; fura-2AM) was “doubling the [Ca^2+]i levels”. The “% cell resp.” value [4, 7] was 74% and 74.1%, the “# samples” value ([4]; responsive/tested samples, fura-2AM, 742 / 230 / 143 cells analyzed for AG / In1-19 / In1-40, peptides 100 nM (abstract)) was 9/9 and the cell viability (NFPAs; 24 h) was “reaching significant levels”. For the same compound, the cell viability (NFPAs; time not specified in text (24-, 48- and/or 72-h)) was “modest but consistent increments in cell viability; also recorded: increased NFPA cells viability”, the cell viability (PRL-omas) was “significant increases” and the apoptotic rate [5] was “did not affect the apoptotic rate”. The cell proliferation [6] was “can stimulate cell proliferation”.
